The text below walks through data of US20060063766A1, “Use of aryl- and heteroaryl-substituted tetrahydroisoquinolines to block reuptake of norepinephrine, dopamine, and serotonin” (priority 2004, published 2006).

Data set [1] has as its system tetrabenazine-induced exploratory loss and ptosis in mice. Nature of the data set: Tetrabenazine assay. The note with it: mouse; result in words.
The target in the next data set is dopamine transporter (Homo sapiens, UniProt Q01959). Particulars: cited from earlier work.
In another data set the target is SERT (Homo sapiens, UniProt P31645). Nature of the data set: biochemical.
The target of a further data set is T1, DAT (Homo sapiens, UniProt Q01959).
T1 construct: cDNAs containing the complete coding regions of each transporter were amplified by PCR from human brain libraries; expressed in transfected cells; host or cells: HEK293E
Nature of the data set: biochemical. The class given is binding.

The conditions of data set [2]: in a very small number of patients; cited from earlier work.

Where a name gives a salt, the structure may show the parent alone.

Chain of SERT (P31645 whole entry): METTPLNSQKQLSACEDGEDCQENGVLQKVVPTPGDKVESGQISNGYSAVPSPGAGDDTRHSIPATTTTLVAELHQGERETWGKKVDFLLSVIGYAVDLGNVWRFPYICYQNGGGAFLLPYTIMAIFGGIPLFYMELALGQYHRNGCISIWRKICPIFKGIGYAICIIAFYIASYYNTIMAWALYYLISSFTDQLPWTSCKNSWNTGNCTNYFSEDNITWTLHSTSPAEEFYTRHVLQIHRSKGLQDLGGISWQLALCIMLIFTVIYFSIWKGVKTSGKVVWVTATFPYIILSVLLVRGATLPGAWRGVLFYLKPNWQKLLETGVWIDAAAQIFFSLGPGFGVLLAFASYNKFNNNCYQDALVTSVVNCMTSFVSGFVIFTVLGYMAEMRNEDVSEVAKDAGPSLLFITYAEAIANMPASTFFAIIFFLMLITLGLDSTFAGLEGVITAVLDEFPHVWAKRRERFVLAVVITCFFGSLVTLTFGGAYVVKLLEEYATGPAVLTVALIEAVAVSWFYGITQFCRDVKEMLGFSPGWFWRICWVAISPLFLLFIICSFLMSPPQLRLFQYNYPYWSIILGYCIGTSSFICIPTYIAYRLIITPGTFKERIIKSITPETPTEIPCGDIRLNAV
T1 sequence (Q01959 whole entry): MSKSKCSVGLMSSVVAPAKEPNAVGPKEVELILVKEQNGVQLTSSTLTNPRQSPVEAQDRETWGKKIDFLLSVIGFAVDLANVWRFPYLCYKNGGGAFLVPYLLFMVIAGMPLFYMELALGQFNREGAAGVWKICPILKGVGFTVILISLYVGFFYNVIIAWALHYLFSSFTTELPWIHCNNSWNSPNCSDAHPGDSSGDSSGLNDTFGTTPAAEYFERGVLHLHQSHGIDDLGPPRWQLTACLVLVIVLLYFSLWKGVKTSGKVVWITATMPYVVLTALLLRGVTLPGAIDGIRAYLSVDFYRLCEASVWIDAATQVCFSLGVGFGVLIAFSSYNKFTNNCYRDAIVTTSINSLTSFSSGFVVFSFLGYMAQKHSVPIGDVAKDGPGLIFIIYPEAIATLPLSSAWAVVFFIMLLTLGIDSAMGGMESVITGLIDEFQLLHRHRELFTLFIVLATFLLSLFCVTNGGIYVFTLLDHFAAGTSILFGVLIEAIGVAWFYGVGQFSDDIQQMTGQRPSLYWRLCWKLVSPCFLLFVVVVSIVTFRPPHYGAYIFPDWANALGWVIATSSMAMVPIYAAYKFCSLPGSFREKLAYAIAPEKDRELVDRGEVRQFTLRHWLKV
Chain of dopamine transporter (Q01959 whole entry): as above

Turning to `COC(=O)C(c1ccccc1)C1CCCCN1` (stereo not drawn) [Ritalin], the “biological activity in the tetrabenazine in vivo assay” value in data set [1] is listed as “potent activity”.

`CNCC[C@@H](Oc1ccccc1C)c1ccccc1` [atomoxetine]: the “activity at the dopamine transporter” value on dopamine transporter was “little or no activity”.

By Ki is commonly meant a measure of affinity in units of concentration, obtained from inhibition or displacement. For orientation: melting point means the temperature of the solid-liquid transition. In turn, `CN1Cc2ccccc2C(c2ccc3sncc3c2)C1.O=C(O)/C=C\C(=O)O` (single isomer, unassigned; (+)) [Example 135, (+)-4-benzo[d]isothiazol-5-yl-2-methyl-1,2,3,4-tetrahydroisoquinoline, maleate salt] had a melting point of 145 to 147 °C. Further, the Ki on SERT was found to be 10.4 nM. The same molecule showed a Ki on DAT of 79.4 nM.

Consider `CN1Cc2ccccc2C(c2cccs2)C1` (racemic) [thiophen-2-yl, reference compound], for which the Ki at SERT is 2450 nM; at DAT, 5990 nM.

On to `CN1Cc2c(N)cccc2C(c2ccccc2)C1` (stereo not drawn) [Nomifensine®], for which the “serious side effect of long term administration” value in data set [2] is reported as “fatal immune hemolytic anemia”.

For the molecule `CN1Cc2c(N)cccc2C(c2ccccc2)C1` (stereo not drawn) [Nomifensine], the “biological activity in the tetrabenazine in vivo assay” value in data set [1] is “potent biological activity”.

For the molecule `COc1cccc2cc(C3CN(C)Cc4ccccc43)oc12` (single isomer, unassigned) [Example 11], the Ki is 26.8 nM on SERT and over 300 nM at DAT.

Regarding `COc1c(C2CN(C)Cc3ccccc32)ccc2sccc12` (single isomer, unassigned) [Example 82], the Ki is 4.3 nM on SERT and over 1000 nM at DAT.

Turning to `CCN1Cc2ccccc2C(c2ccc3cn[nH]c3c2)C1` (single isomer, unassigned; (+)) [Example 130, (+)-4-(1H-Indazol-6-yl)-2-ethyl-1,2,3,4-tetrahydroisoquinoline, maleate salt], the Ki at SERT worked out at 22.5 nM; at DAT, 105 nM.
